{"source": "paper PMC4500398", "about": "“All-Purpose Containers? Lipid-Binding Protein – Drug Interactions” (PLoS ONE, 2015)", "key": {"[1]": {"target": "T1, c-FABPL (fatty acid-binding protein from G. gallus liver) (Gallus gallus, UniProt P80226)", "T1 sequence (P80226 2-126)": "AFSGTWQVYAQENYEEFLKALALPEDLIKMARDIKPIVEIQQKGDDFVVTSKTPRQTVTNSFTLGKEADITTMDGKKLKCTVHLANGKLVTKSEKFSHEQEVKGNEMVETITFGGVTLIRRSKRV", "experiment": "[…]-NMR titration (n.O.e., T1) and competition with cholate", "design": "gene FABP1; purified from chicken liver, delipidated"}, "[2]": {"target": "T1, c-FABPL (fatty acid-binding protein from G. gallus liver)", "experiment": "[…]-NMR titration with […]-enriched ligand", "design": "gene FABP1; apo protein, purified from chicken liver"}, "[3]": {"target": "T1, c-FABPL (fatty acid-binding protein from G. gallus liver)", "experiment": "[…]-NMR titration with […]-enriched ligand; […]-NMR competition", "design": "gene FABP1; apo protein, purified from chicken liver"}, "[4]": {"target": "T1, c-FABPL (fatty acid-binding protein from G. gallus liver)", "experiment": "[…]-NMR (T1, n.O.e.) and displacement by cholate", "design": "gene FABP1; purified from chicken liver, delipidated"}}}
{"smiles": "CC(C)n1c(/C=C/[C@@H](O)C[C@@H](O)CC(=O)O)c(-c2ccc(F)cc2)c2ccccc21", "note": "(relative stereo) [compound 14, fluvastatin]", "values": [{"measurement": "19F-NMR titration (n.O.e., T1) and competition with cholate", "setting": "[1]", "result": "Symmetric competition experiments between fluvastatin and cholate"}]}
{"smiles": "C[C@H](CCC(=O)NCC(=O)O)[C@H]1CC[C@H]2[C@@H]3[C@H](O)C[C@@H]4C[C@H](O)CC[C@]4(C)[C@H]3C[C@H](O)[C@]12C", "note": "[glycocholate]", "values": [{"measurement": "13C-NMR titration with 13C-enriched ligand", "setting": "[2]", "result": "The titration indicates two sites of comparable affinity for cholate, and of different affinity for glycocholate"}]}
{"smiles": "C[C@H](CCC(=O)O)[C@H]1CC[C@H]2[C@@H]3[C@H](O)C[C@@H]4C[C@H](O)CC[C@]4(C)[C@H]3C[C@H](O)[C@]12C", "note": "[compound 7, cholate]", "values": [{"measurement": "13C-NMR titration with 13C-enriched ligand; 19F-NMR competition", "setting": "[3]", "result": "The titration indicates two sites of comparable affinity for cholate, and of different affinity for glycocholate"}]}
{"smiles": "CCCCCCCCCCCCCCC(F)C(=O)O", "note": "(stereo not shown) [16–17, 2-fluoropalmitate]", "values": [{"measurement": "19F-NMR (T1, n.O.e.) and displacement by cholate", "setting": "[4]", "result": "only using a tenfold excess of cholate the ligand was completely removed from the protein"}]}
